Measurements published in PubChem BioAssay AID1963428 (Molecular Pharmacology Branch, DTP, NCI, 2024).

System: 171881-019-R-J1-PDC complex spheroid growth, % test/control
Assay: Anticancer human tumor 171881-019-R-J1-PDC patient-derived invasive breast carcinoma cell line growth inhibition [Asc]
Settings: for IC50: curve of first compound; for viability, T/C: stronger effect = lower value
In short: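 Spheroid model: tumor line + HUVEC + hMSC. Single agents and combinations; top conc. at/near clinical Cmax (10 microM if undetermined), half-log dilutions. DMSO stocks at 800-fold test concentration.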
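Wherever viability, T/C is given: spheroids exposed to compounds for 7 days.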

Work on `NC(=O)C(=Cn1cnc(-c2cc(C(F)(F)F)cc(C(F)(F)F)c2)n1)c1cncnc1` + CNC(C)C(=O)NC1CN(S(=O)(=O)c2cccc(S(=O)(=O)N3CCC4CCC(C(=O)NC(c5ccccc5)c5ccccc5)N4C(=O)C(NC(=O)C(C)NC)C3)c2)CCC2CCC(C(=O)NC(c3ccccc3)c3ccccc3)N2C1=O yielded an IC50 (second compound 0.01 µM) of 63 nM, an IC50 (second compound 0.0316 µM) of 66.3 nM and an IC50 (second compound 0.1 µM) of 61.9 nM. The IC50 (second compound 0.316 µM) was 58.6 nM, the IC50 (second compound 1 µM) was 61.6 nM and the viability, T/C (second compound 0.01 µM, first compound 0.000949 µM) was 118%. The viability, T/C (second compound 0.01 µM, first compound 0.003 µM) was 101%, the viability, T/C (second compound 0.01 µM, first compound 0.00949 µM) was 139% and the viability, T/C (second compound 0.01 µM, first compound 0.03 µM) was 109%. For the same compound, the viability, T/C (second compound 0.01 µM, first compound 0.0949 µM) was 17.5%, the viability, T/C (second compound 0.01 µM, first compound 0.3 µM) was 5.02% and the viability, T/C (second compound 0.0316 µM, first compound 0.000949 µM) was 109%. For the same compound, the viability, T/C (second compound 0.0316 µM, first compound 0.003 µM) was 111%, the viability, T/C (second compound 0.0316 µM, first compound 0.00949 µM) was 149% and the viability, T/C (second compound 0.0316 µM, first compound 0.03 µM) was 104%. For the same compound, the viability, T/C (second compound 0.0316 µM, first compound 0.0949 µM) was 17.8%, the viability, T/C (second compound 0.0316 µM, first compound 0.3 µM) was 5.09% and the viability, T/C (second compound 0.1 µM, first compound 0.000949 µM) was 97.9%. The viability, T/C (second compound 0.1 µM, first compound 0.003 µM) was 109%, the viability, T/C (second compound 0.1 µM, first compound 0.00949 µM) was 145% and the viability, T/C (second compound 0.1 µM, first compound 0.03 µM) was 111%. For the same compound, the viability, T/C (second compound 0.1 µM, first compound 0.0949 µM) was 14.1%, the viability, T/C (second compound 0.1 µM, first compound 0.3 µM) was 4.5% and the viability, T/C (second compound 0.316 µM, first compound 0.000949 µM) was 118%. It also gave a viability, T/C (second compound 0.316 µM, first compound 0.003 µM) of 108%, a viability, T/C (second compound 0.316 µM, first compound 0.00949 µM) of 149% and a viability, T/C (second compound 0.316 µM, first compound 0.03 µM) of 98.7%. It also gave a viability, T/C (second compound 0.316 µM, first compound 0.0949 µM) of 15.8%, a viability, T/C (second compound 0.316 µM, first compound 0.3 µM) of 4.13% and a viability, T/C (second compound 1 µM, first compound 0.000949 µM) of 110%. It also gave a viability, T/C (second compound 1 µM, first compound 0.003 µM) of 108%, a viability, T/C (second compound 1 µM, first compound 0.00949 µM) of 166% and a viability, T/C (second compound 1 µM, first compound 0.03 µM) of 108%. It also gave a viability, T/C (second compound 1 µM, first compound 0.0949 µM) of 15.6% and a viability, T/C (second compound 1 µM, first compound 0.3 µM) of 3.79%.

For `C=C(F)C(=O)N1CCN(c2nc(OCC3CCCN3C)nc3c2CCN(c2cccc4cccc(Cl)c24)C3)CC1CC#N` (stereo not given) + Cc1c(S(C)(=O)=O)c(-c2cc(F)cc(N3CCN(c4ccc(NS(=O)(=O)c5ccc(NC(CCN6CCC(C(=O)OCCCP(=O)(O)O)CC6)CSc6ccccc6)c(S(=O)(=O)C(F)(F)F)c5)cc4)CC3)c2)c(-c2ccc(Cl)cc2)n1C(C)C, the IC50 (second compound 0.1 µM) was 5610 nM, the IC50 (second compound 0.316 µM) was 5890 nM and the IC50 (second compound 1 µM) was 4120 nM. For the same compound, the IC50 (second compound 3.16 µM) was 2530 nM, the IC50 (second compound 10 µM) was 2430 nM and the viability, T/C (second compound 0.1 µM, first compound 0.0316 µM) was 93.8%. For the same compound, the viability, T/C (second compound 0.1 µM, first compound 0.1 µM) was 86.7%, the viability, T/C (second compound 0.1 µM, first compound 0.316 µM) was 106% and the viability, T/C (second compound 0.1 µM, first compound 1 µM) was 90.9%. It also gave a viability, T/C (second compound 0.1 µM, first compound 3.16 µM) of 118%, a viability, T/C (second compound 0.1 µM, first compound 10 µM) of 0.36% and a viability, T/C (second compound 0.316 µM, first compound 0.0316 µM) of 130%. It also gave a viability, T/C (second compound 0.316 µM, first compound 0.1 µM) of 129%, a viability, T/C (second compound 0.316 µM, first compound 0.316 µM) of 113% and a viability, T/C (second compound 0.316 µM, first compound 1 µM) of 125%. It also gave a viability, T/C (second compound 0.316 µM, first compound 3.16 µM) of 108%, a viability, T/C (second compound 0.316 µM, first compound 10 µM) of 0.3% and a viability, T/C (second compound 1 µM, first compound 0.0316 µM) of 124%. The viability, T/C (second compound 1 µM, first compound 0.1 µM) was 136%, the viability, T/C (second compound 1 µM, first compound 0.316 µM) was 133% and the viability, T/C (second compound 1 µM, first compound 1 µM) was 131%. For the same compound, the viability, T/C (second compound 1 µM, first compound 3.16 µM) was 64.8%, the viability, T/C (second compound 1 µM, first compound 10 µM) was 0.25% and the viability, T/C (second compound 3.16 µM, first compound 0.0316 µM) was 161%. The viability, T/C (second compound 3.16 µM, first compound 0.1 µM) was 149%, the viability, T/C (second compound 3.16 µM, first compound 0.316 µM) was 144% and the viability, T/C (second compound 3.16 µM, first compound 1 µM) was 185%. It also gave a viability, T/C (second compound 3.16 µM, first compound 3.16 µM) of 23.6%, a viability, T/C (second compound 3.16 µM, first compound 10 µM) of 0.3% and a viability, T/C (second compound 10 µM, first compound 0.0316 µM) of 179%. For the same compound, the viability, T/C (second compound 10 µM, first compound 0.1 µM) was 191%, the viability, T/C (second compound 10 µM, first compound 0.316 µM) was 196% and the viability, T/C (second compound 10 µM, first compound 1 µM) was 202%. For the same compound, the viability, T/C (second compound 10 µM, first compound 3.16 µM) was 15.2% and the viability, T/C (second compound 10 µM, first compound 10 µM) was 0.27%.

`Cc1nc(N2CCC3(CC2)COC(C)C3N)c(CO)nc1Sc1ccnc(N)c1Cl` (stereo not given) + CCN1C(C(=O)NC23CCC(C(=O)O)(CC2)CC3)C(c2cccc(Cl)c2F)C2(C(=O)Nc3cc(Cl)ccc32)C12CCCCC2 gave an IC50 (second compound 0.03 µM) of over 3000 nM, an IC50 (second compound 0.0949 µM) of over 3000 nM and an IC50 (second compound 0.3 µM) of over 3000 nM. It also gave an IC50 (second compound 0.949 µM) of over 3000 nM, an IC50 (second compound 3 µM) of over 3000 nM and a viability, T/C (second compound 0.03 µM, first compound 0.00949 µM) of 87.3%. The viability, T/C (second compound 0.03 µM, first compound 0.03 µM) was 101%, the viability, T/C (second compound 0.03 µM, first compound 0.0949 µM) was 153% and the viability, T/C (second compound 0.03 µM, first compound 0.3 µM) was 152%. It also gave a viability, T/C (second compound 0.03 µM, first compound 0.949 µM) of 126%, a viability, T/C (second compound 0.03 µM, first compound 3 µM) of 109% and a viability, T/C (second compound 0.0949 µM, first compound 0.00949 µM) of 80.7%. It also gave a viability, T/C (second compound 0.0949 µM, first compound 0.03 µM) of 99.1%, a viability, T/C (second compound 0.0949 µM, first compound 0.0949 µM) of 165% and a viability, T/C (second compound 0.0949 µM, first compound 0.3 µM) of 178%. It also gave a viability, T/C (second compound 0.0949 µM, first compound 0.949 µM) of 121%, a viability, T/C (second compound 0.0949 µM, first compound 3 µM) of 114% and a viability, T/C (second compound 0.3 µM, first compound 0.00949 µM) of 112%. For the same compound, the viability, T/C (second compound 0.3 µM, first compound 0.03 µM) was 109%, the viability, T/C (second compound 0.3 µM, first compound 0.0949 µM) was 158% and the viability, T/C (second compound 0.3 µM, first compound 0.3 µM) was 171%. It also gave a viability, T/C (second compound 0.3 µM, first compound 0.949 µM) of 141%, a viability, T/C (second compound 0.3 µM, first compound 3 µM) of 103% and a viability, T/C (second compound 0.949 µM, first compound 0.00949 µM) of 90.8%. It also gave a viability, T/C (second compound 0.949 µM, first compound 0.03 µM) of 105%, a viability, T/C (second compound 0.949 µM, first compound 0.0949 µM) of 134% and a viability, T/C (second compound 0.949 µM, first compound 0.3 µM) of 184%. For the same compound, the viability, T/C (second compound 0.949 µM, first compound 0.949 µM) was 134%, the viability, T/C (second compound 0.949 µM, first compound 3 µM) was 95.2% and the viability, T/C (second compound 3 µM, first compound 0.00949 µM) was 109%. It also gave a viability, T/C (second compound 3 µM, first compound 0.03 µM) of 127%, a viability, T/C (second compound 3 µM, first compound 0.0949 µM) of 175% and a viability, T/C (second compound 3 µM, first compound 0.3 µM) of 166%. The viability, T/C (second compound 3 µM, first compound 0.949 µM) was 122% and the viability, T/C (second compound 3 µM, first compound 3 µM) was 105%.
